Experiment [1] deals with T1, SARS-CoV-2 nsp3-mac1 (Severe acute respiratory syndrome coronavirus 2, UniProt P0DTD1). The experiment can be described thus: biochemical. It counts as biochemical. As to conditions: SARS-CoV-2 nsp3 macrodomain TR-FRET single point, concentration 50.0 uM. (In general: In TR-FRET formats the signal depends on donor and acceptor labels being close together.)
For experiment [2], the target named is T1, SARS-CoV-2 nsp3-mac1. The experiment can be described thus: biochemical. Also on record: SARS-CoV-2 nsp3 macrodomain TR-FRET single point, per cent inhibition, n=2.

Where two headings read alike, the source gives them in different places.

Turning to `O=C(Nc1ccc(O)cc1)Nc1ccc(Oc2ccccc2)cc1` [ASAP-0000069], the perc_inhibition_mean on SARS-CoV-2 nsp3-mac1 [1] was -3.306%. Also, the inhibition at 50 µM on SARS-CoV-2 nsp3-mac1 [2] (read-out: perc_inhibition_mean, batch_name=ASAP-0000069-001) was -3.31%.
As for `COc1nc2cc(NC(=O)c3cc(N4CCNC4=O)ccc3F)ccc2[nH]1` [ASAP-0000070], on SARS-CoV-2 nsp3-mac1 [1], the perc_inhibition_mean is -4.208%. In addition, the inhibition at 50 µM on SARS-CoV-2 nsp3-mac1 [2] (read-out: perc_inhibition_mean, batch_name=ASAP-0000070-001) was -4.21%.
Consider `CC(C)OCCNC(=O)c1cc2c(=O)n3ccccc3nc2n1C` [ASAP-0000071], for which, on SARS-CoV-2 nsp3-mac1 [1], the perc_inhibition_mean was 14.037%. In addition, on SARS-CoV-2 nsp3-mac1 [2] (read-out: perc_inhibition_mean, batch_name=ASAP-0000071-001), the inhibition at 50 µM worked out at 14%.
In the case of `O=C(O)[C@H]1CCCCCN1C(=O)c1ncnc2[nH]ccc12` [ASAP-0000072], on SARS-CoV-2 nsp3-mac1 [1], the perc_inhibition_mean is recorded as 11.75%. Moreover, at SARS-CoV-2 nsp3-mac1 [2] (read-out: perc_inhibition_mean, batch_name=ASAP-0000072-001), the inhibition at 50 µM was 11.8%.
For `C[C@@H](O)[C@@H]1CN(C(=O)c2ncnc3[nH]ccc23)CCO1` [ASAP-0000073], on SARS-CoV-2 nsp3-mac1 [1], the perc_inhibition_mean is on record as -3.131%. The inhibition at 50 µM on SARS-CoV-2 nsp3-mac1 [2] (read-out: perc_inhibition_mean, batch_name=ASAP-0000073-001) is -3.13%.
Take `c1ccc(Cn2ncc3c2CCC[C@@H]3Nc2ncnc3[nH]ccc23)cc1` [ASAP-0000074]: on SARS-CoV-2 nsp3-mac1 [1], the perc_inhibition_mean is reported as 5.848%. In addition, the inhibition at 50 µM at SARS-CoV-2 nsp3-mac1 [2] (read-out: perc_inhibition_mean, batch_name=ASAP-0000074-001) was 5.85%.
Take `FC(F)(F)CO[C@@H]1CCCN(c2ncnc3[nH]ccc23)C1` [ASAP-0000075]: the perc_inhibition_mean at SARS-CoV-2 nsp3-mac1 [1] is listed as 22.218%. For the same molecule, the inhibition at 50 µM at SARS-CoV-2 nsp3-mac1 [2] (read-out: perc_inhibition_mean, batch_name=ASAP-0000075-001) amounted to 22.2%.
On to `C[C@@H](CO)Nc1ncnc2[nH]c(C(=O)OC(C)(C)C)cc12` [ASAP-0000076], for which the perc_inhibition_mean on SARS-CoV-2 nsp3-mac1 [1] is listed as 10.712%. Further, the inhibition at 50 µM at SARS-CoV-2 nsp3-mac1 [2] (read-out: perc_inhibition_mean, batch_name=ASAP-0000076-001) worked out at 10.7%.
As to `CC(C)(C[C@@H]1CCCN(c2ncnc3[nH]ccc23)C1)C(N)=O` [ASAP-0000077], the perc_inhibition_mean at SARS-CoV-2 nsp3-mac1 [1] was -1.586%. The inhibition at 50 µM at SARS-CoV-2 nsp3-mac1 [2] (read-out: perc_inhibition_mean, batch_name=ASAP-0000077-001) was -1.59%.
Regarding `Cc1nc(NC(=O)[C@@H]2CCCOC2)c2ccnc-2[nH]1` [ASAP-0000078], the perc_inhibition_mean on SARS-CoV-2 nsp3-mac1 [1] is on record as -3.202%. Moreover, the inhibition at 50 µM on SARS-CoV-2 nsp3-mac1 [2] (read-out: perc_inhibition_mean, batch_name=ASAP-0000078-001) is -3.2%.
In the case of `O=C(Nc1cnc2[nH]ncc2c1)c1cc(C2CC2)[nH]c1C1CC1` [ASAP-0000079], the perc_inhibition_mean at SARS-CoV-2 nsp3-mac1 [1] was -23.613%. On SARS-CoV-2 nsp3-mac1 [2] (read-out: perc_inhibition_mean, batch_name=ASAP-0000079-001), the inhibition at 50 µM is -23.6%.
With `O[C@H]1C[C@](CNc2ncnc3[nH]ccc23)(c2ccccc2)C1` [ASAP-0000080], at SARS-CoV-2 nsp3-mac1 [1], the perc_inhibition_mean is reported as 11.369%. The inhibition at 50 µM at SARS-CoV-2 nsp3-mac1 [2] (read-out: perc_inhibition_mean, batch_name=ASAP-0000080-001) amounted to 11.4%.
In the case of `Cc1[nH]c2ncnc(NC(=O)CCc3ccccc3)c2c1C` [ASAP-0000081], the perc_inhibition_mean on SARS-CoV-2 nsp3-mac1 [1] was 5.021%. In addition, the inhibition at 50 µM on SARS-CoV-2 nsp3-mac1 [2] (read-out: perc_inhibition_mean, batch_name=ASAP-0000081-001) came to 5.02%.
With `CCC[C@@](C)(NC(=O)c1ncnc2[nH]ccc12)C(=O)OC` [ASAP-0000082], the perc_inhibition_mean on SARS-CoV-2 nsp3-mac1 [1] is -6.621%. Further, the inhibition at 50 µM at SARS-CoV-2 nsp3-mac1 [2] (read-out: perc_inhibition_mean, batch_name=ASAP-0000082-001) was -6.62%.
As to `Oc1ccccc1CNc1ncnc2[nH]cnc12` [ASAP-0000083], the perc_inhibition_mean at SARS-CoV-2 nsp3-mac1 [1] turned out to be 1.904%. Further, at SARS-CoV-2 nsp3-mac1 [2] (read-out: perc_inhibition_mean, batch_name=ASAP-0000083-001), the inhibition at 50 µM stood at 1.9%.
For the molecule `Cc1nn(Cc2ccccc2)c(C)c1CNc1ncnc2[nH]ncc12` [ASAP-0000084], the perc_inhibition_mean at SARS-CoV-2 nsp3-mac1 [1] is recorded as -1.755%. The inhibition at 50 µM on SARS-CoV-2 nsp3-mac1 [2] (read-out: perc_inhibition_mean, batch_name=ASAP-0000084-001) is -1.75%.
As for `c1ccc2sc([C@@H]3CCCN(c4ncnc5[nH]ccc45)C3)nc2c1` [ASAP-0000085], the perc_inhibition_mean at SARS-CoV-2 nsp3-mac1 [1] is -0.779%. For the same molecule, the inhibition at 50 µM at SARS-CoV-2 nsp3-mac1 [2] (read-out: perc_inhibition_mean, batch_name=ASAP-0000085-001) is -0.779%.
Turning to `COc1ccc(Nc2ncnc3[nH]ncc23)c(OC)c1` [ASAP-0000086], the perc_inhibition_mean on SARS-CoV-2 nsp3-mac1 [1] amounted to 2.597%. The inhibition at 50 µM on SARS-CoV-2 nsp3-mac1 [2] (read-out: perc_inhibition_mean, batch_name=ASAP-0000086-001) is 2.6%.
For `CCc1nc(CN(C)c2nc(C)nc3[nH]ccc23)cs1` [ASAP-0000087], the perc_inhibition_mean on SARS-CoV-2 nsp3-mac1 [1] is -6.131%. Moreover, the inhibition at 50 µM at SARS-CoV-2 nsp3-mac1 [2] (read-out: perc_inhibition_mean, batch_name=ASAP-0000087-001) is -6.13%.
In the case of `FC(F)(F)c1nc(NC[C@H]2CCCO2)c2nc[nH]c2n1` [ASAP-0000088], the perc_inhibition_mean on SARS-CoV-2 nsp3-mac1 [1] worked out at 2.501%. For the same molecule, the inhibition at 50 µM on SARS-CoV-2 nsp3-mac1 [2] (read-out: perc_inhibition_mean, batch_name=ASAP-0000088-001) stood at 2.5%.
As to `COCc1nc(CNc2c(C#N)c(C)nn2C)cs1` [ASAP-0000089], the perc_inhibition_mean at SARS-CoV-2 nsp3-mac1 [1] amounted to 0.8%. The inhibition at 50 µM at SARS-CoV-2 nsp3-mac1 [2] (read-out: perc_inhibition_mean, batch_name=ASAP-0000089-001) is 0.8%.

Source of the values: paper doi:10.1101/2024.08.19.608619, “Discovery of potent SARS-CoV-2 nsp3 macrodomain inhibitors uncovers lack of translation to cellular antiviral response” (bioRxiv, 2024).
